Experimental data as given in patent publication US6875451B2, “Compositions and methods for the treatment of primary and metastatic neoplastic diseases using arsenic compounds” (PolaRx Biopharmaceuticals Inc., priority 1997, dated 2005).
Like-named read-outs stand apart in the source and are kept apart here.

Experiments:
Assay type in all cases: cell-based
DU-145 = test: SRB growth assay, 6 days exposure, prostate cancer; conditions: DU-145, 6 days
Procedure: (§1) Arsenic trioxide (1 mg/ml, 10 mg/ampoule, manufactured by Taylor Pharmaceuticals, Decatur, Ill.) was tested at five concentrations each at 10-fold dilutions, i.e., 10^−5, 10^−6, 10^−7, 10^−8 and 10^−9 μg/ml.
(§2) The in vitro tests were performed by incubating the test cells in the presence of the indicated concentration of arsenic trioxide under standard culture conditions for a designated period of time, which is followed by a sulforhodamine B (SRB) protein assay to estimate cell viability or growth. The cell lines are organized into subpanels according to the origin of the cell lines, e.g., leukemia, breast cancer, etc. A description of the cell lines and method of testing is described in Monk et al. (1997, Anticancer Drug Des. 12:533-41) and Weinstein et al., (1997, Science 275:343-9), which are incorporated herein in their entirety.
(§3) The measurement of an effect is expressed in Percentage Growth (PG). The measured effect of the compound on a cell line is calculated according to one or the other of the following two expressions: If (Mean ODtest−Mean ODzero)≧0. then PG=100×(Mean ODtest−Mean ODzero)/(Mean ODctrl−Mean ODzero) If (Mean ODtest−Mean ODzero)<0. then PG=100×(Mean ODtest−Mean ODzero)/(Mean ODzero where: • Mean ODzero=the average of optical density measurements of SRB-derived color just before exposure of cells to the test compounds; • Mean ODtest=the average of optical density measurements of SRB-derived color after exposure of cells to the test compound for a designated period of time; and • Mean ODctrl=the average of optical density measurements of SRB-derived color after with no exposure of cells to the test compound for a designated period of time
(§4) The first two columns describe the subpanel (e.g., leukemia) and cell line (e.g., CCRF-CEM) involved. The next two columns list the Mean ODzero and Mean ODctrl; the next five columns list the Mean ODtest for each of five different concentrations. Each concentration is expressed as the log10 (molar or μg/ml). The next five columns list the calculated PGs for each concentration. The response parameters GI50, TGI and LC50 are interpolated values representing the concentrations at which the PG is +50, 0, and −50, respectively. Sometimes these response parameters cannot be obtained by interpolation. If, for instance, all of the PGs in a given row exceed +50, then none of the three parameters can be obtained by interpolation. In such a case, the value given for each response parameter is the highest concentration tested and is preceded by a “>” sign. This practice is extended similarly to the other possible situations where a response parameter cannot be obtained by interpolation.
(§5) In the first set, the cells from 56 different cancer cell lines were exposed to five concentrations of arsenic trioxide continuously for two days prior to performing the SRB assay. In the second set, the cells from 50 different cell lines (a subset of the first 56 cell lines, plus the renal cancer cell line 786-0) were exposed continuously for six days prior to the SRB assay.

UACC-257 = test: SRB growth assay, 2 days exposure, melanoma
Procedure: as §1, §2, §3, §4, §5

MALME-3M = test: SRB growth assay, 2 days exposure, melanoma
Procedure: as §1, §2, §3, §4, §5

UACC-62 = test: SRB growth assay, 2 days exposure, melanoma
Procedure: as §1, §2, §3, §4, §5

SK-MEL-2 = test: SRB growth assay, 2 days exposure, melanoma
Procedure: as §1, §2, §3, §4, §5

LOX IMVI = test: SRB growth assay, 2 days exposure, melanoma
Procedure: as §1, §2, §3, §4, §5

SK-MEL-5 = test: SRB growth assay, 2 days exposure, melanoma
Procedure: as §1, §2, §3, §4, §5

M14 = test: SRB growth assay, 2 days exposure, melanoma
Procedure: as §1, §2, §3, §4, §5

SK-MEL-28 = test: SRB growth assay, 2 days exposure, melanoma
Procedure: as §1, §2, §3, §4, §5

HOP-62 = test: SRB growth assay, 2 days exposure, non-small cell lung cancer
Procedure: as §1, §2, §3, §4, §5

NCI-H522 = test: as above
Procedure: as §1, §2, §3, §4, §5

HL-60(TB) = conditions: 2 days
SR = test: SRB growth assay, 2 days exposure, leukemia
Procedure: as §1, §2, §3, §4, §5

arsenic trioxide
TGI (DU-145): 6.32E−06 | Mean Optical Densities (DU-145; Log 10 Concentration −4.9): 0.055 | Percent Growth (DU-145; Log 10 Concentration −4.9): −43% | Mean Optical Densities (DU-145; Log 10 Concentration −5.9): 2.153 | Percent Growth (DU-145; Log 10 Concentration −5.9): 100% | Mean Optical Densities (DU-145; Log 10 Concentration −6.9): 1.935 | Percent Growth (DU-145; Log 10 Concentration −6.9): 89% | Mean Optical Densities (DU-145; Log 10 Concentration −7.9): 1.954 | Percent Growth (DU-145; Log 10 Concentration −7.9): 90% | Mean Optical Densities (DU-145; Log 10 Concentration −8.9): 2.147 | Percent Growth (DU-145; Log 10 Concentration −8.9): 99% | CC50 (DU-145; read-out: LC50 (the source's name)): > 12.6 µM | TGI (UACC-257): >0.0126 ng/mL | Percent Growth (UACC-257; log10 conc −4.9): 40% | Percent Growth (UACC-257; log10 conc −5.9): 88% | Percent Growth (UACC-257; log10 conc −6.9): 104% | Percent Growth (UACC-257; log10 conc −7.9): 97% | Percent Growth (UACC-257; log10 conc −8.9): 101% | TGI (MALME-3M): 0.00602 ng/mL | Percent Growth (MALME-3M; log10 conc −4.9): −42% | Percent Growth (MALME-3M; log10 conc −5.9): 90% | Percent Growth (MALME-3M; log10 conc −6.9): 102% | Percent Growth (MALME-3M; log10 conc −7.9): 123% | Percent Growth (MALME-3M; log10 conc −8.9): 138% | TGI (UACC-62): >0.0126 ng/mL | Percent Growth (UACC-62; log10 conc −4.9): 6% | Percent Growth (UACC-62; log10 conc −5.9): 96% | Percent Growth (UACC-62; log10 conc −6.9): 103% | Percent Growth (UACC-62; log10 conc −7.9): 103% | Percent Growth (UACC-62; log10 conc −8.9): 104% | TGI (SK-MEL-2): 0.00881 ng/mL | Percent Growth (SK-MEL-2; log10 conc −4.9): −17% | Percent Growth (SK-MEL-2; log10 conc −5.9): 91% | Percent Growth (SK-MEL-2; log10 conc −6.9): 110% | Percent Growth (SK-MEL-2; log10 conc −7.9): 103% | Percent Growth (SK-MEL-2; log10 conc −8.9): 113% | TGI (LOX IMVI): >0.0126 ng/mL | Percent Growth (LOX IMVI; log10 conc −4.9): 13% | Percent Growth (LOX IMVI; log10 conc −5.9): 73% | Percent Growth (LOX IMVI; log10 conc −6.9): 71% | Percent Growth (LOX IMVI; log10 conc −7.9): 88% | Percent Growth (LOX IMVI; log10 conc −8.9): 89% | TGI (SK-MEL-5): >0.0126 ng/mL | Percent Growth (SK-MEL-5; log10 conc −4.9): 0% | Percent Growth (SK-MEL-5; log10 conc −5.9): 78% | Percent Growth (SK-MEL-5; log10 conc −6.9): 95% | Percent Growth (SK-MEL-5; log10 conc −7.9): 97% | Percent Growth (SK-MEL-5; log10 conc −8.9): 96% | TGI (M14): >0.0126 ng/mL | Percent Growth (M14; log10 conc −4.9): 3% | Percent Growth (M14; log10 conc −5.9): 87% | Percent Growth (M14; log10 conc −6.9): 96% | Percent Growth (M14; log10 conc −7.9): 105% | Percent Growth (M14; log10 conc −8.9): 98% | TGI (SK-MEL-28): >0.0126 ng/mL | Percent Growth (SK-MEL-28; log10 conc −4.9): 6% | Percent Growth (SK-MEL-28; log10 conc −5.9): 94% | Percent Growth (SK-MEL-28; log10 conc −6.9): 101% | Percent Growth (SK-MEL-28; log10 conc −7.9): 103% | Percent Growth (SK-MEL-28; log10 conc −8.9): 100% | TGI (HOP-62): >0.0126 ng/mL | Percent Growth (HOP-62; log10 conc −4.9): 35% | Percent Growth (HOP-62; log10 conc −5.9): 97% | Percent Growth (HOP-62; log10 conc −6.9): 100% | Percent Growth (HOP-62; log10 conc −7.9): 99% | Percent Growth (HOP-62; log10 conc −8.9): 97% | TGI (NCI-H522): 0.00708 ng/mL | Percent Growth (NCI-H522; log10 conc −4.9): −21% | Percent Growth (NCI-H522; log10 conc −5.9): 63% | Percent Growth (NCI-H522; log10 conc −6.9): 108% | Percent Growth (NCI-H522; log10 conc −7.9): 100% | Percent Growth (NCI-H522; log10 conc −8.9): 129% | TGI (HL-60(TB)): 0.0103 ng/mL | Percent Growth (HL-60(TB); log10 conc −4.9): −9% | Percent Growth (HL-60(TB); log10 conc −5.9): 90% | Percent Growth (HL-60(TB); log10 conc −6.9): 102% | Percent Growth (HL-60(TB); log10 conc −7.9): 92% | Percent Growth (HL-60(TB); log10 conc −8.9): 101% | TGI (SR): 0.00585 ng/mL | Percent Growth (SR; log10 conc −4.9): −30% | Percent Growth (SR; log10 conc −5.9): 60% | Percent Growth (SR; log10 conc −6.9): 100% | Percent Growth (SR; log10 conc −7.9): 89% | Percent Growth (SR; log10 conc −8.9): 99%
